According to US8778925B2, “Pyridine and pyrimidine based compounds as Wnt signaling pathway inhibitors for the treatment of cancer” (Cancer Research Technology Ltd., priority 2008, dated 2014):

Legend:
Wnt pathway = assay: Luciferase reporter cell based assay (ER-DSH HEK293 cells); conditions: Homo sapiens, TCF-dependent transcription induced by estrogen (2 μM), reporter activity at 24 hours, read-out: IC50 in Luciferase reporter assay (ER-DSH HEK293 cells) assay described in Example 92
Method: Inhibitory activity of the Wnt pathway was assessed using a luciferase reporter cell based assay. A luciferase reporter cell line was developed in HEK293 cells, which contained an estrogen receptor-DSH (ER-DSH) construct and a TCF-luciferase-IRES-GFP construct.
A high-throughput assay was performed by inducing TCF-dependent transcription in the ER-DSH HEK293 cell line by the addition of estrogen (2 μM) resulting in at least a 14-fold increase in reporter activity measured at 24 hours. […]

| SMILES | IC50 (Wnt pathway) | melting point |
| --- | --- | --- |
| NC(=O)C1CCN(c2c(Br)cncc2Br)CC1 [Example E27, 1-(3,5-dibromopyridin-4-yl)piperidine-4-carboxamide] | 0.21 µM |  |
| COc1ccc(-c2cncnc2N2CCC(C(N)=O)CC2)cc1 [Example E85, 1-(5-(4-methoxyphenyl)pyrimidin-4-yl)piperidine-4-carboxamide] | 1.58 µM |  |
| NCCNC(=O)C1CCN(c2c(Cl)cncc2Cl)CC1 [Example E13, N-(2-aminoethyl)-1-(3,5-dichloropyridin-4-yl)piperidine-4-carboxamide] | 7 µM |  |
| NC(=O)C1CCN(c2ncncc2Br)CC1 [Example E29, 1-(5-bromopyrimidin-4-yl)piperidine-4-carboxamide] | 16.2 µM | 188 to 190 °C |
| O=C1NCCC12CCN(c1c(Cl)cncc1-c1ccccc1)CC2 [Example E60, 8-(3-chloro-5-phenylpyridin-4-yl)-2,8-diazaspiro[4.5]decan-1-one] | 0.033 µM |  |
| CNC(=O)C1CCN(c2c(Cl)cncc2Cl)CC1 [Example E1, 1-(3,5-dichloropyridin-4-yl)-N-methylpiperidine-4-carboxamide] | 12.6 µM |  |
| COc1ccc(-c2cncc(Cl)c2N2CCC(C(N)=O)CC2)cc1OC [Example E4, 1-(3-chloro-5-(3,4-dimethoxyphenyl)pyridin-4-yl)piperidine-4-carboxamide] | 0.17 µM |  |
| O=C(O)C1CCN(c2c(Cl)cncc2-c2ccccc2)CC1 [Example E87, 1-(3-chloro-5-phenylpyridin-4-yl)piperidine-4-carboxylic acid] | 0.74 µM |  |
| Cc1nn(C)cc1-c1cncc(Cl)c1N1CCC(C(N)=O)CC1 [Example E47, 1-(3-chloro-5-(1,3-dimethyl-1H-pyrazol-4-yl)pyridin-4-yl)piperidine-4-carboxamide] | 0.44 µM |  |
| O=C(NCCNc1c(Cl)cncc1Cl)C1CCN(c2c(Cl)cncc2Cl)CC1 [Example E5, 1-(3,5-dichloropyridin-4-yl)-N-(2-(3,5-dichloropyridin-4-ylamino)ethyl)piperidine-4-carboxamide] |  | 157 to 159 °C |
| NC(=O)C1CCN(c2ccncc2-c2ccccc2)CC1 [Example E68, 1-(3-phenylpyridin-4-yl)piperidine-4-carboxamide] | 1.15 µM |  |
| O=C(NCCNC(=O)C1CCN(c2c(Cl)cncc2Cl)CC1)c1ccccc1 [Example E19, N-(2-benzamidoethyl)-1-(3,5-dichloropyridin-4-yl)piperidine-4-carboxamide] |  | 209 to 211 °C |
| NC(=O)C1CCN(c2c(Cl)cncc2-c2ccc(F)cc2)CC1 [Example E50, 1-(3-chloro-5-(4-fluorophenyl)pyridin-4-yl)piperidine-4-carboxamide] | 0.11 µM |  |
| O=C(C1CCN(c2c(Cl)cncc2Cl)CC1)N1CCNCC1 [Example E20, (1-(3,5-dichloropyridin-4-yl)piperidin-4-yl)(piperazin-1-yl)methanone] |  | 256 to 258 °C |
| CC(=O)N1CCN(c2c(Cl)cncc2Cl)CC1 [Example E9, 1-(4-(3,5-dichloropyridin-4-yl)piperazin-1-yl)ethanone] | 12.1 µM | 144 to 146 °C |
| CN(C)C(=O)C1CCN(c2c(Cl)cncc2Cl)CC1 [Example E2, 1-(3,5-dichloropyridin-4-yl)-N,N-dimethylpiperidine-4-carboxamide] | 30 µM |  |
| Cc1cncnc1N1CCC(C(N)=O)CC1 |  | 182 to 184 °C |

| SMILES | IC50 (Wnt pathway) | melting point |
| --- | --- | --- |
| COc1ccc(-c2cncc(Cl)c2N2CCC(C(N)=O)C2)cc1 (stereo not shown) [Example E74, 1-(3-chloro-5-(4-methoxyphenyl)pyridin-4-yl)pyrrolidine-3-carboxamide] | 0.26 µM |  |
| NC(=O)C1CCN(c2c(Br)cncc2-c2ccccc2)CC1 [Example E39, 1-(3-bromo-5-phenylpyridin-4-yl)piperidine-4-carboxamide] |  | 220 to 222 °C |
| NC(=O)C1CCN(c2ncncc2Cl)CC1 |  | 201 to 202 °C |
| NC(=O)C1CCN(c2c(Cl)cncc2Cl)C1 (stereo not shown) [Example E21, 1-(3,5-dichloropyridin-4-yl)pyrrolidine-3-carboxamide] | 0.76 µM | 161 to 163 °C |
| N#CC1CCN(c2c(Br)cncc2Br)C1 (stereo not shown) [Example E23, 1-(3,5-dibromopyridin-4-yl)pyrrolidine-3-carbonitrile] |  | 159 to 161 °C |
| O=C1NCCC12CCN(c1c(Cl)cncc1Cl)CC2 [Example E59, 8-(3,5-dichloropyridin-4-yl)-2,8-diazaspiro[4.5]decan-1-one] | 3.43 µM |  |
| NC(=O)C1CCN(c2c(Cl)cncc2-c2ccncc2)CC1 [Example E65, 1-(5-chloro-3,4′-bipyridin-4-yl)piperidine-4-carboxamide] | 0.44 µM |  |
| NC(=O)C1CCN(c2ccncc2Cl)CC1 [Example E12, 1-(3-chloropyridin-4-yl)piperidine-4-carboxamide] | 22.9 µM |  |
| Clc1cncc(Cl)c1N1CCC(c2ncco2)CC1 [Example E35, 2-(1-(3,5-dichloropyridin-4-yl)piperidin-4-yl)oxazole] | 7.66 µM |  |
| NC(=O)C1CCN(c2ncncc2-c2ccccc2)CC1 [Example E33, 1-(5-phenylpyrimidin-4-yl)piperidine-4-carboxamide] | 5 µM |  |
| COc1ccc(-c2cncc(Cl)c2N2CCC(C(N)=O)CC2)cc1 [Example E43, 1-(3-chloro-5-(4-methoxyphenyl)pyridin-4-yl)piperidine-4-carboxamide] | 0.032 µM |  |
| O=C(NCCN(CC1CCCCC1)CC1CCCCC1)C1CCN(c2c(Cl)cncc2Cl)CC1 [Example E18, N-(2-(bis(cyclohexylmethyl)amino)ethyl)-1-(3,5-dichloropyridin-4-yl)piperidine-4-carboxamide] |  | 236 to 238 °C |
| COc1ccc(-c2cnccc2N2CCC(C(N)=O)CC2)cc1 [Example E37, 1-(3-(4-methoxyphenyl)pyridin-4-yl)piperidine-4-carboxamide] | 1.64 µM |  |
| O=C(c1ccccc1)N1CCN(c2c(Cl)cncc2Cl)CC1 |  | 132 to 134 °C |
| O=C(NCCN(Cc1ccccc1)Cc1ccccc1)C1CCN(c2c(Cl)cncc2Cl)CC1 [Example E17, N-(2-(dibenzylamino)ethyl)-1-(3,5-dichloropyridin-4-yl)piperidine-4-carboxamide] |  | 147 to 149 °C |
| O=C(NCCNCC1CCCCC1)C1CCN(c2c(Cl)cncc2Cl)CC1 [Example E16, N-(2-(cyclohexylmethylamino)ethyl)-1-(3,5-dichloropyridin-4-yl)piperidine-4-carboxamide] |  | 174 to 177 °C |
| N#CC1CCN(c2c(Cl)cncc2-c2ccccc2)CC1 [Example E86, 1-(3-chloro-5-phenylpyridin-4-yl)piperidine-4-carbonitrile] | 0.09 µM |  |
